Key:
[1] = test system: p53DsRed reporter in PG3/9 melanoma cells (A375 clone); experiment: p53DsRed reporter activation assay (in vitro p53 activity assay); type: cell-based; conditions: for EC50: Homo sapiens, A-375, PG3/9 melanoma cells, 24 hours, read-out: effective concentration (EC50), p53DsRed reporter activation
Protocol: The ability of the compounds to activate p53 was analyzed using a cell-based assay. To establish the assay, a stable cell transfectant expressing a p53-responsive reporter was generated. A375 melanoma cell line (ATCC CRL-1619) was transfected with a vector containing the p53 consensus element 13x repeat (13XRE) (Kern et al., 1991) cloned to a DsRed Express reporter vector (Clontech) to yield the vector “PG13DsRed”, hereafter termed as “p53DsRed”. […] The cell clone PG3/9 was used in the screen.
The assay was carried out in a 96-well format and all plate handlings were done using liquid handling robots (Thermo CRS, Thermo Electron Corporation; Biomek FX, Beckman Coulter and Hamilton STAR, Hamilton Microlab). Cells were plated at 10,000 cells/100 μL/well onto 96-well ViewPlates (Packard) and incubated overnight at +37° C. and 5% CO2. Small molecule compound chemical libraries were purchased and diluted to dimethylsulfoxide (DMSO) at 10 mM concentration. The compounds were pin-transferred to plain media at approximately 3 μM concentration either as single (one compound/one well) or pools of compounds (two compounds/one well). The growth media was removed and replaced with media with the test compounds followed by incubation of the cells for 24 h at +37° C. and 5% CO2. […] Following the incubation, the cells were washed with phosphate buffered saline and fixed with paraformaldehyde (PFA, 4%, 25 min, RT) and cell nuclei were stained with Hoechst 33342 (Molecular Probes, 4 μg/mL, 2 min, RT).
The fluorescence signals of Hoechst 33342 and DsRed reporter expression in the fixed cells were analyzed using ArrayScan 4.5 high-content screening platform (Cellomics) including an inverted microscope (Zeiss 200M) with 10× objective (Zeiss), Omega XF93 filter (Omega), ORCA-AG CCD camera (Hamamatsu). The algorithm used for image acquisition and analysis was Target Activation Bioapplication (Cellomics), which was set to analyse the total number of cells and the percentage of p53 reporter positive cells termed as “responders”. For each well, four images on both fluorescence channels were acquired corresponding to approximately 1700 cells in mock-treated wells. The mean number of responders was calculated for each well, and compounds causing reporter activation for more than two times the mean number of responders in the mock treated cells in each plate were regarded as hits.
In the secondary screen the hits were collected and tested over 100 nM to 10 μM concentration range. The compound treatment time, cell fixations and stainings as well as fluorescence signal detection was as described above. Compounds providing consistent p53DsRed reporter activation at low μM concentration range were selected for further testing. The effective concentration 50 (EC50) was calculated using the following formula: […]

[2] = test system: normal human primary melanocytes; experiment: WST-1 cell viability assay, melanocytes; type: cell-based; conditions: Homo sapiens, 72 h, Melanocyte, three days
Protocol: The effect of the compounds selected using the screening assay on the viability of several tumor cell lines as well as diploid cell lines and cell strains was studied. Cells were plated in 96-well plates at a density of 10,000 cells/100 μL/well and were incubated overnight. The following day compound dilutions ranging from 0 to 40 μM were applied to the cells in triplicate and the cells were incubated with the compounds for three days. Cell viability was assayed using the WST-1 cell proliferation reagent (Roche Diagnostics, Germany) The WST-1 reagent was diluted 1:10 in cell culture media and 100 μL of the reagent dilution was applied onto cells followed by 1 hour incubation at +37° C. The specific absorbance was measured at 450 nm and a reference absorbance was measured at 690 nm. […] Analysis for Protein Levels

Compound | EC50 [1] [µM] | fraction of p53-reporter activated cells at high concentrations ([1]; high concentrations, apparently due to excessive cell death) | IC50 [2] [µM]
Cc1cc(C)c2nc3nc(C)cc(C)c3c(N)c2c1 [Compound 22, 2,4,7,9-tetramethylbenzo[b]-1,8-naphthyridin-5-amine] | 2.6 | decrease in the fraction of p53-reporter activated cells | 32.2
CN(C)CCNC(=O)c1cccn2c(=O)c3cc4ccccc4cc3nc12 [Compound 21] | 0.3 |  | > 40

— patent publication US10214491B2, “Activators and therapeutic applications thereof” (THE JOHNS HOPKINS UNIVERSITY, priority 2007, dated 2019)
